{"source": "PubChem BioAssay (NCI)", "test_in_all_cases": "NCI anticancer screen, dose series, 48 h", "key": {"[1]": {"test_system": "HCT-116 colon"}, "[2]": {"test_system": "UO-31 renal"}, "[3]": {"test_system": "LOX IMVI melanoma"}, "[4]": {"test_system": "HOP-92 NSCLC"}, "[5]": {"test_system": "A549 NSCLC"}, "[6]": {"test_system": "MOLT-4 leukemia"}, "[7]": {"test_system": "SN12C renal"}, "[8]": {"test_system": "MDA-MB-231 breast"}, "[9]": {"test_system": "PC-3 prostate"}, "[10]": {"test_system": "KM12 colon"}, "[11]": {"test_system": "SK-MEL-5 melanoma"}, "[12]": {"test_system": "HOP-62 NSCLC"}, "[13]": {"test_system": "SR leukemia"}, "[14]": {"test_system": "OVCAR-3 ovarian"}, "[15]": {"test_system": "M14 melanoma"}, "[16]": {"test_system": "BT-549 breast"}, "[17]": {"test_system": "SK-MEL-2 melanoma"}, "[18]": {"test_system": "OVCAR-8 ovarian"}, "[19]": {"test_system": "NCI-H460 lung"}, "[20]": {"test_system": "HT29 colon"}, "[21]": {"test_system": "CAKI-1 renal"}, "[22]": {"test_system": "UACC-257 melanoma"}, "[23]": {"test_system": "K-562 leukemia"}, "[24]": {"test_system": "MALME-3M melanoma"}, "[25]": {"test_system": "786-0 renal"}, "[26]": {"test_system": "TK-10 renal"}, "[27]": {"test_system": "MDA-N"}, "[28]": {"test_system": "SK-OV-3 ovarian"}, "[29]": {"test_system": "T-47D breast"}, "[30]": {"test_system": "EKVX NSCLC"}, "[31]": {"test_system": "IGROV1 ovarian"}, "[32]": {"test_system": "UACC-62 melanoma"}, "[33]": {"test_system": "MDA-MB-435"}, "[34]": {"test_system": "CCRF-CEM leukemia"}, "[35]": {"test_system": "NCI-H226 lung"}, "[36]": {"test_system": "HCC-2998 colon"}, "[37]": {"test_system": "COLO 205 colon"}, "[38]": {"test_system": "OVCAR-5 ovarian"}, "[39]": {"test_system": "OVCAR-4 ovarian"}, "[40]": {"test_system": "SF-268 CNS"}, "[41]": {"test_system": "MCF7 breast"}, "[42]": {"test_system": "ACHN renal"}, "[43]": {"test_system": "SNB-75 CNS"}, "[44]": {"test_system": "HCT-15 colon"}, "[45]": {"test_system": "SNB-19 CNS"}, "[46]": {"test_system": "RXF 393 renal"}, "[47]": {"test_system": "NCI-H23 lung"}, "[48]": {"test_system": "RPMI-8226 leukemia"}, "[49]": {"test_system": "A498 renal"}, "[50]": {"test_system": "U251 CNS"}, "[51]": {"test_system": "DU-145 prostate"}, "[52]": {"test_system": "SK-MEL-28 melanoma"}, "[53]": {"test_system": "SF-539 CNS"}, "[54]": {"test_system": "HL-60(TB) leukemia"}}, "note": "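1) Cells in 96-well plates. 2) Compound, 48 h, 5 concentrations. 3) Linear interpolation between surrounding doses. 4) Unreached endpoint = highest concentration. TGI is the concentration that stops growth completely.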"}
{"compound": "COc1ccc(-c2cc(-c3ccccc3)nc(N)c2-c2ccc3ccccc3c2)cc1", "values": [{"measurement": "TGI", "setting": "[1]", "result": 2.5, "unit": "µM"}, {"measurement": "TGI", "setting": "[2]", "result": 5.13, "unit": "µM"}, {"measurement": "TGI", "setting": "[3]", "result": 3.1, "unit": "µM"}, {"measurement": "TGI", "setting": "[4]", "result": 2.91, "unit": "µM"}, {"measurement": "TGI", "setting": "[5]", "result": 5.39, "unit": "µM"}, {"measurement": "TGI", "setting": "[6]", "result": 7.38, "unit": "µM"}, {"measurement": "TGI", "setting": "[7]", "result": 3.43, "unit": "µM"}, {"measurement": "TGI", "setting": "[8]", "result": 3.17, "unit": "µM"}, {"measurement": "TGI", "setting": "[9]", "result": 5.45, "unit": "µM"}, {"measurement": "TGI", "setting": "[10]", "result": 3.2, "unit": "µM"}, {"measurement": "TGI", "setting": "[11]", "result": 3.27, "unit": "µM"}, {"measurement": "TGI", "setting": "[12]", "result": 4.8, "unit": "µM"}, {"measurement": "TGI", "setting": "[13]", "result": 7.31, "unit": "µM"}, {"measurement": "TGI", "setting": "[14]", "result": 5.08, "unit": "µM"}, {"measurement": "TGI", "setting": "[15]", "result": 5.68, "unit": "µM"}, {"measurement": "TGI", "setting": "[16]", "result": 3.09, "unit": "µM"}, {"measurement": "TGI", "setting": "[17]", "result": 3.88, "unit": "µM"}, {"measurement": "TGI", "setting": "[18]", "result": 3.09, "unit": "µM"}, {"measurement": "TGI", "setting": "[19]", "result": 2.9, "unit": "µM"}, {"measurement": "TGI", "setting": "[20]", "result": 2.28, "unit": "µM"}, {"measurement": "TGI", "setting": "[21]", "result": 15.1, "unit": "µM"}, {"measurement": "TGI", "setting": "[22]", "result": 3.52, "unit": "µM"}, {"measurement": "TGI", "setting": "[23]", "result": "> 100", "unit": "µM"}, {"measurement": "TGI", "setting": "[24]", "result": 2.75, "unit": "µM"}, {"measurement": "TGI", "setting": "[25]", "result": 3.1, "unit": "µM"}, {"measurement": "TGI", "setting": "[26]", "result": 11.6, "unit": "µM"}, {"measurement": "TGI", "setting": "[27]", "result": 3.17, "unit": "µM"}, {"measurement": "TGI", "setting": "[28]", "result": 17.4, "unit": "µM"}, {"measurement": "TGI", "setting": "[29]", "result": 3.38, "unit": "µM"}, {"measurement": "TGI", "setting": "[30]", "result": 3.66, "unit": "µM"}, {"measurement": "TGI", "setting": "[31]", "result": 3.11, "unit": "µM"}, {"measurement": "TGI", "setting": "[32]", "result": 2.96, "unit": "µM"}, {"measurement": "TGI", "setting": "[33]", "result": 4.68, "unit": "µM"}, {"measurement": "TGI", "setting": "[34]", "result": "> 100", "unit": "µM"}, {"measurement": "TGI", "setting": "[35]", "result": 2.99, "unit": "µM"}, {"measurement": "TGI", "setting": "[36]", "result": 3.29, "unit": "µM"}, {"measurement": "TGI", "setting": "[37]", "result": 3.21, "unit": "µM"}, {"measurement": "TGI", "setting": "[38]", "result": 3.71, "unit": "µM"}, {"measurement": "TGI", "setting": "[39]", "result": 2.42, "unit": "µM"}, {"measurement": "TGI", "setting": "[40]", "result": 9.2, "unit": "µM"}, {"measurement": "TGI", "setting": "[41]", "result": 3.36, "unit": "µM"}, {"measurement": "TGI", "setting": "[42]", "result": 4.77, "unit": "µM"}, {"measurement": "TGI", "setting": "[43]", "result": 5, "unit": "µM"}, {"measurement": "TGI", "setting": "[44]", "result": 2.92, "unit": "µM"}, {"measurement": "TGI", "setting": "[45]", "result": 2.57, "unit": "µM"}, {"measurement": "TGI", "setting": "[46]", "result": 3.39, "unit": "µM"}, {"measurement": "TGI", "setting": "[47]", "result": 3.71, "unit": "µM"}, {"measurement": "TGI", "setting": "[48]", "result": 4.74, "unit": "µM"}, {"measurement": "TGI", "setting": "[49]", "result": 5.08, "unit": "µM"}]}
{"compound": "CCc1c(-c2ccccc2)[nH]c2ccccc2c1=O", "values": [{"measurement": "TGI", "setting": "[1]", "result": "> 100", "unit": "µM"}, {"measurement": "TGI", "setting": "[2]", "result": 0.266, "unit": "µM"}, {"measurement": "TGI", "setting": "[50]", "result": "> 100", "unit": "µM"}, {"measurement": "TGI", "setting": "[3]", "result": "> 100", "unit": "µM"}, {"measurement": "TGI", "setting": "[5]", "result": "> 100", "unit": "µM"}, {"measurement": "TGI", "setting": "[6]", "result": "> 100", "unit": "µM"}, {"measurement": "TGI", "setting": "[7]", "result": "> 100", "unit": "µM"}, {"measurement": "TGI", "setting": "[8]", "result": "> 100", "unit": "µM"}, {"measurement": "TGI", "setting": "[10]", "result": "> 100", "unit": "µM"}, {"measurement": "TGI", "setting": "[11]", "result": "> 100", "unit": "µM"}, {"measurement": "TGI", "setting": "[12]", "result": "> 100", "unit": "µM"}, {"measurement": "TGI", "setting": "[13]", "result": "> 100", "unit": "µM"}, {"measurement": "TGI", "setting": "[14]", "result": "> 100", "unit": "µM"}, {"measurement": "TGI", "setting": "[15]", "result": "> 100", "unit": "µM"}, {"measurement": "TGI", "setting": "[16]", "result": "> 100", "unit": "µM"}, {"measurement": "TGI", "setting": "[17]", "result": "> 100", "unit": "µM"}, {"measurement": "TGI", "setting": "[51]", "result": "> 100", "unit": "µM"}, {"measurement": "TGI", "setting": "[19]", "result": "> 100", "unit": "µM"}, {"measurement": "TGI", "setting": "[20]", "result": "> 100", "unit": "µM"}, {"measurement": "TGI", "setting": "[21]", "result": "> 100", "unit": "µM"}, {"measurement": "TGI", "setting": "[22]", "result": "> 100", "unit": "µM"}, {"measurement": "TGI", "setting": "[23]", "result": "> 100", "unit": "µM"}, {"measurement": "TGI", "setting": "[24]", "result": "> 100", "unit": "µM"}, {"measurement": "TGI", "setting": "[52]", "result": "> 100", "unit": "µM"}, {"measurement": "TGI", "setting": "[26]", "result": "> 100", "unit": "µM"}, {"measurement": "TGI", "setting": "[27]", "result": "> 100", "unit": "µM"}, {"measurement": "TGI", "setting": "[28]", "result": "> 100", "unit": "µM"}, {"measurement": "TGI", "setting": "[29]", "result": "> 100", "unit": "µM"}, {"measurement": "TGI", "setting": "[53]", "result": "> 100", "unit": "µM"}, {"measurement": "TGI", "setting": "[30]", "result": "> 100", "unit": "µM"}, {"measurement": "TGI", "setting": "[32]", "result": "> 100", "unit": "µM"}, {"measurement": "TGI", "setting": "[33]", "result": "> 100", "unit": "µM"}, {"measurement": "TGI", "setting": "[34]", "result": "> 100", "unit": "µM"}, {"measurement": "TGI", "setting": "[35]", "result": 84, "unit": "µM"}, {"measurement": "TGI", "setting": "[36]", "result": "> 100", "unit": "µM"}, {"measurement": "TGI", "setting": "[38]", "result": "> 100", "unit": "µM"}, {"measurement": "TGI", "setting": "[39]", "result": "> 100", "unit": "µM"}, {"measurement": "TGI", "setting": "[40]", "result": "> 100", "unit": "µM"}, {"measurement": "TGI", "setting": "[41]", "result": "> 100", "unit": "µM"}, {"measurement": "TGI", "setting": "[42]", "result": "> 100", "unit": "µM"}, {"measurement": "TGI", "setting": "[44]", "result": "> 100", "unit": "µM"}, {"measurement": "TGI", "setting": "[45]", "result": "> 100", "unit": "µM"}, {"measurement": "TGI", "setting": "[54]", "result": "> 100", "unit": "µM"}, {"measurement": "TGI", "setting": "[46]", "result": "> 100", "unit": "µM"}, {"measurement": "TGI", "setting": "[47]", "result": "> 100", "unit": "µM"}, {"measurement": "TGI", "setting": "[48]", "result": "> 100", "unit": "µM"}, {"measurement": "TGI", "setting": "[49]", "result": "> 100", "unit": "µM"}]}
